{
  "source": "patent USRE39149E1",
  "about": "“Method of administering azithromycin” (Pfizer Inc., priority 1994, dated 2006)",
  "experiment": "Stability of azithromycin at acid pH / in stomach juices",
  "type": "physicochemical",
  "description": "Thus, without being bound to any mechanism of action, it is surprising that rapid disintegration in the GI tract appears to be of importance to the invention.",
  "data": [
    {"smiles": "CC[C@H]1OC(=O)[C@H](C)[C@@H](O[C@H]2C[C@@](C)(OC)[C@@H](O)[C@H](C)O2)[C@H](C)[C@@H](O[C@@H]2O[C@H](C)C[C@H](N(C)C)[C@H]2O)[C@](C)(O)C[C@@H](C)CN(C)[C@H](C)[C@@H](O)[C@]1(C)O", "note": "[azithromycin, 9a-aza-9a-methyl-9-deoxo-9a-homoerythromycin A]", "values": [
      {"measurement": "stability at low (acid) pH", "setting": "on the order of the pH of stomach acid", "value": "unstable"},
      {"measurement": "stability on exposure to stomach juices", "setting": "stomach juices, acid pH", "value": "breaks down"}
    ]}
  ]
}
